The source of these data is paper PMC6348381, “Discovery of an MLLT1/3 YEATS Domain Chemical Probe” (Angewandte Chemie (International Ed. in English), 2018).

One assay addresses T1, MLLT3 YD (Homo sapiens, UniProt P42568).
T1 construct: made in house; host or cells: E. coli Rosetta
Kind of assay: Isothermal titration calorimetry (ITC), MLLT3 YD. It counts as binding. As for the experimental part:
Supplementary Table 1. AlphaScreen selectivity screen of compound 92 over other acyllysine […]
II.III Isothermal Titration Calorimetry (ITC)
Experiments were carried out on a Nano -ITC Standard Volume Instrument (TA Instruments).
All experiments were carried out at 25 °C in 20 mM HEPES pH 7.5, 150 mM NaCl, 0.5 mM TCEP and 5% glycerol. Protein soluti ons were buffer exchanged by gel filtration. The titrations were conducted using an initial injection of 2 μL followed by 32 injections of 8 μL.
Background dilution heat was subtracted from each experiment. Thermodynamic parameters […]
changes in free energy, enthalpy and entropy respectively. Independent single site binding models were employed in data analysis.
(also on this page, place not known: ac yllysine Nano-ITC -T 1/ KB. ΔH Molar&ratio&[injectant/cell] Time&[s] Corrected&Heat&Rate&[ucal/s] Experiment&1 K Experiment&2 K K)
(§1) (1 picture or pasted object on this page, not shown here)
A general note: Isothermal titration calorimetry measures the heat released or taken up as one component is titrated into another.

Assay [1] deals with T2, endogenous MLLT1 in MV4;11 cells (Homo sapiens, UniProt Q03111).
T2 construct: with endogenous MLLT1 in MV4;11 cells; endogenous in cells; host or cells: MV4;11
The experiment in a line: Cellular thermal shift assay (CETSA), MV4;11 cells. The class given is cell-based. The settings on record: up to 10 μM. The procedure: Supplementary Table 2. Thermal stabilisation of compound 1, 92 and Bromosporine with recombinant human bromodomain proteins. *50 µM compound concentration. †10 µM compound […]
II.VIII Cellular Thermal Shift Assay[6]
HEK293 and MV4;11 cells were cultured at 37 °C in a humidified 5% CO2 atmosphere in DMEM Medium containing 10% FBS, respectively. Cells were grown until approximately […]
DMSO final concentrati on) for 30 minutes. Cells were then collected, washed with PBS, transferred in PCR tubes, and pelleted by centrifugation (300 g, 3 min, RT.) The PBS was removed, and the cell pellets heated at the indicated temperature for 3 minutes in a PCR machine (UNO96 , VMR) and then placed on ice. Lysis buffer (50 mM Tris pH 7.5, 0.8% v/v NP-40, 5% v/v glycerol, 1.5 mM MgCl2, 100 mM NaCl, 25 mM NaF, 1mM Na3VO4, 1mM PMSF, 1mM DTT, 10 μg/mL TLCK, 1 μg/mL Leupeptin, 1 μg/mL Aprotinin, 1 μg/mL soy bean trypsin, ≥250 units/ mL Benzonase) was added and the cells lysed by 3 freeze -thaw cycles in liquid nitrogen. Aggregated proteins were removed by centrifugation (17000 g, 20 min, 4 °C) and the protein concentration of the retained soluble fraction determined. 4× sample loading buffer (Bio-Rad) containing 20% v/v DTT was added and samples were heated for 6 min at 90 °C prior to separation by SDS -PAGE. […]

The next assay concerns the target T3, YEATS4 (Homo sapiens, UniProt O95619).
T3 construct: made in house; host or cells: E. coli Rosetta
The experiment in a line: AlphaScreen selectivity screen, YEATS4. The class given is binding. From the text: IC50 (µM) IC50 (µM) IC50 (µM) IC50 (µM) (µM) (µM) (µM)
Supplementary Table 1. […]
(Alpha assays give light when donor and acceptor beads are brought close together.)

The target in the next assay is T4, MLLT1 YD (Homo sapiens, UniProt Q03111).
T4 construct: made in house; host or cells: E. coli Rosetta
T4 sequence (Q03111 1-138 limits assumed): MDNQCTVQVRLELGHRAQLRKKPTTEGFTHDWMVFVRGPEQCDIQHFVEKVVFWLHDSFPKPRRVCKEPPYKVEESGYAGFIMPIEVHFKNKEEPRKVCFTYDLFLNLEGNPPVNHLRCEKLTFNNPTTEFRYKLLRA
The experiment in a line: AlphaScreen (AS) assay, MLLT1 YEATS domain. It counts as binding. As for the experimental part:
II.IV Protein Expression and Purification
Human bromodomains were cloned, expressed and purified as previously described. The cloning, expression and purification of human YEATS domains are described as follows; Sequences for the wild type YEATS domains of MLLT1, MLLT3, GAS41 and YEATS2 were cloned into expression vectors (Table S1). E. coli Rosetta cells were grown in TB medium at 37°C. Overexpression was induced after five hours by addition of IPTG to a final concentration of 0.4 mM and cells were incubated at 17°C overnight. Cells were harvested by centrifugation and the cell pellet was resuspended in cold binding buffer (50 mM Tris at pH 7.5, 500 mM NaCl, 20 mM imidazole, 2 mM DTT) on a magnetic stirring plate at 4°C. The suspension was lysed using an Avestin EmulsiFlex-C5 homogeniser (1 pass without pressure, four passes with pressure between 1000-1500 bar). The lysate was clarified via centrifugation at 16,000 rpm at 4°C for 1 hour (JLA-16 rotor in Beckmann Coulter Avanti J- […]
The supernatant was loaded onto a standard NiNTA column (HisTrap
FF, 5 ml, GE Healthcare Lifesciences) on an ÄKTAxpress system (GE). After washing with binding buffer, the target protein was eluted at 300 mM imidazole. The eluted peak fractions were pooled and concentrated to 5 ml (Amicon concentrators, 10 kDa molecular weight cut off (MWCO)) and then separated via size exclusion chromatography (buffered with 20 mM Tris at pH 7.5, 500 mM NaCl, 2 mM DTT) using a GE Superdex 75 column on an […]
(NanoDrop ND-1000 Spectrophotometer) and protein identity was verified via SDS-PAGE and LC/MS. Pooled fractions were then again concentrated to at least 2 mg/ml and stored at […]
as §1

The test system of another assay is 48 bromodomains. Kind of assay: Thermal shift assay, bromodomain panel. It counts as binding, human. Particulars: 50 μM compound concentrations. As for the experimental part:
II.VII Thermal Shift Assay[6]
Thermal melting experiments were carried out using an Mx3005p Real Time PCR machine (Stratagene). Proteins were buffered in 10 mM HEPES pH 7.5, 500 mM NaCl and assayed in a 96-well plate at a final concentration of 2 μM in 20 μL volume. Compounds were added at a final concentration of 50 μM. SYPRO Orange (Molecular Probes) was added as a fluorescence probe at a dilution of 1:1000. Excitation and emission filters for the SYPRO-Orange dye were set to 465 nm and 590 nm, respectively. The temperature was raised with a step of 3 °C per minute from 25 °C to 96 °C and fluorescence readings were taken at each interval. The unfolding curves were fitted using the Boltzmann equation to determine the middle point of the transition.

Molecules are shown by their SMILES.

T3 sequence (O95619 15-158 limits assumed): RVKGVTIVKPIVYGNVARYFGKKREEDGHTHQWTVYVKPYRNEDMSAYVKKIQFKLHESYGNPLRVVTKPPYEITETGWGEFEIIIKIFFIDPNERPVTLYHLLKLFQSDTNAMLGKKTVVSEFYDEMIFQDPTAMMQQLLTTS
T1 sequence (P42568 1-138 limits assumed): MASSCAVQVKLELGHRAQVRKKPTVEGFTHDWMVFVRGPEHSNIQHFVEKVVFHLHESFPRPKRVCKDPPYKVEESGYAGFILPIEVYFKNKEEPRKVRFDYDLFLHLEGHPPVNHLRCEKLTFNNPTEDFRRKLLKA
T2 sequence (Q03111 whole entry): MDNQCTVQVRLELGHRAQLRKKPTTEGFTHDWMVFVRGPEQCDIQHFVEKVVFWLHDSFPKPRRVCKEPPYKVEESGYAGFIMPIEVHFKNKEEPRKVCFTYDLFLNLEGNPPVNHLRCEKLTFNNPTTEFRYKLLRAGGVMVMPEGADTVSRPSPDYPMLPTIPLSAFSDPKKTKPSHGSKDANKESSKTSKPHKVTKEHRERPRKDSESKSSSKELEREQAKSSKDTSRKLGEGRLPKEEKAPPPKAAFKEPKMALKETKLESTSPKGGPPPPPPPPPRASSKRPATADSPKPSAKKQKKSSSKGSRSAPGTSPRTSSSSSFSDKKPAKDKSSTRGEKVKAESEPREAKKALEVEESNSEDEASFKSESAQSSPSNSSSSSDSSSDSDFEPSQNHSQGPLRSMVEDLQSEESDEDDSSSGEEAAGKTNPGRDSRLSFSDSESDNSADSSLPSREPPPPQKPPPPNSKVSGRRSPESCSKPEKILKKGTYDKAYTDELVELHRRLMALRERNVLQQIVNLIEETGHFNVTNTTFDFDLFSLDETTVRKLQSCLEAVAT

`C[C@H]1CCCN1Cc1nc2cc(NC(=O)c3ccc4c(cnn4C)c3)ccc2[nH]1` [Compound 92] showed an equilibrium dissociation constant (Kd) on MLLT3 YD of 77 nM. The “thermal stabilisation of MLLT1 (CETSA)” value in assay [1] is recorded as “stabilisation of MLLT1”. This molecule also came in with an IC50 against YEATS4 of more than 10000 nM.
At MLLT1 YD, `COC(=O)c1ccc(C(=O)Nc2ccc3[nH]c(CN4CCCCC4)nc3c2)cc1` [Compound 1] yielded a half-inhibitory concentration (IC50) of 2100 ± 780 nM. Also, in the assay with 48 bromodomains, the “activity against 48 bromodomains in thermal shift assay” value is reported as “no activity”.

In general, Kd refers to the constant that tells how readily two partners part at equilibrium. The low end stands for tighter binding, the high end for weaker binding. One may read the IC50 as the concentration needed to halve the response being measured.
